Our source for the IC50 values is patent US10125098B2, “Therapeutic compounds and methods of use thereof” (GENENTECH, INC., priority 2014, dated 2018).

The target of one data set is T1, NaV1.5 (Homo sapiens, UniProt Q14524).
T1 construct: permanently transfected with an expression vector containing the full-length cDNA coding for the desired human sodium channel α-subunit; expressed in transfected cells; host or cells: HEK-293
Briefly: Patch voltage clamp electrophysiology assay (EP), NaV1.5. The class given is cell-based. Particulars: HEK-293 cells stably expressing NaV1.5 with β1 subunit, whole-cell patch clamp, membrane potential −60 mV (inactivated state). The procedure: (§1) The following patch voltage clamp electrophysiology studies were performed on representative compounds of the invention using human embryonic kidney cells (HEK), permanently transfected with an expression vector containing the full-length cDNA coding for the desired human sodium channel α-subunit, grown in culture media containing 10% FBS, 1% PSG, and 0.5 mg/mL G418 at 37° C. with 5% CO2. […] NaV1.7 and NaV1.5 cDNAs (NM_002977 and AC137587; SCN5A, respectively) were stably expressed in HEK-293 cells. The β1 subunit was coexpressed in both the NaV1.7 and NaV1.5 cell lines.
(§2) Sodium currents were measured using the patch clamp technique in the whole-cell configuration using either a PatchXpress automated voltage clamp or manually using an Axopatch 200B (Axon Instruments) or Model 2400 (A-M systems) amplifier. The manual voltage clamp protocol was as follows: Borosilicate glass micropipettes were fire-polished to a tip diameter yielding a resistance of 2-4 Mohms in the working solutions. The pipette was filled with a solution comprised of: 5 mM NaCl, 10 mM CsCl, 120 mM CsF, 0.1 mM CaCl2, 2 mM MgCl2, 10 mM HEPES, 10 mM EGTA; and adjusted to pH 7.2 with CsOH. The external solution had the following composition: 140 mM NaCl, 5 mM KCl, 2 mM CaCl2, 1 mM MgCl2, 10 mM HEPES; and adjusted to pH 7.4 with NaOH. In some studies, the external sodium was reduced by equimolar replacement with choline. Osmolarity in the CsF internal and NaCl external solutions was adjusted to 300 mOsm/kg and 310 mOsm/kg with glucose, respectively. All recordings were performed at ambient temperature in a bath chamber with a volume of 150 μL. Control sodium currents were measured in 0.5% DMSO. Controls and representative compounds of the invention were applied to the recording chamber through a 4-pinch or 8-pinch valve bath perfusion system manufactured by ALA Scientific Instruments.
(§3) Series resistance compensation was applied (60-80%). […] All statistics in this study are given as mean±SD.
(§4) The membrane potential was maintained at a voltage where inactivation of the channel is complete (which was −60 mV for both NaV1.7 and NaV1.5). The voltage is then stepped back to a very negative (Vhold=[…]) voltage for 20 ms and then a test pulse is applied to quantify the compound block. […] The percent decrease in sodium current following wash-on of compound was taken as the percent block of sodium channels.

A further data set deals with T2, human NaV1.7 (Homo sapiens, UniProt Q15858).
T2 construct: permanently transfected with an expression vector containing the full-length cDNA coding for the desired human sodium channel α-subunit; expressed in transfected cells; host or cells: HEK-293
T2 sequence (Q15858 1-1977 isoform Q15858-3): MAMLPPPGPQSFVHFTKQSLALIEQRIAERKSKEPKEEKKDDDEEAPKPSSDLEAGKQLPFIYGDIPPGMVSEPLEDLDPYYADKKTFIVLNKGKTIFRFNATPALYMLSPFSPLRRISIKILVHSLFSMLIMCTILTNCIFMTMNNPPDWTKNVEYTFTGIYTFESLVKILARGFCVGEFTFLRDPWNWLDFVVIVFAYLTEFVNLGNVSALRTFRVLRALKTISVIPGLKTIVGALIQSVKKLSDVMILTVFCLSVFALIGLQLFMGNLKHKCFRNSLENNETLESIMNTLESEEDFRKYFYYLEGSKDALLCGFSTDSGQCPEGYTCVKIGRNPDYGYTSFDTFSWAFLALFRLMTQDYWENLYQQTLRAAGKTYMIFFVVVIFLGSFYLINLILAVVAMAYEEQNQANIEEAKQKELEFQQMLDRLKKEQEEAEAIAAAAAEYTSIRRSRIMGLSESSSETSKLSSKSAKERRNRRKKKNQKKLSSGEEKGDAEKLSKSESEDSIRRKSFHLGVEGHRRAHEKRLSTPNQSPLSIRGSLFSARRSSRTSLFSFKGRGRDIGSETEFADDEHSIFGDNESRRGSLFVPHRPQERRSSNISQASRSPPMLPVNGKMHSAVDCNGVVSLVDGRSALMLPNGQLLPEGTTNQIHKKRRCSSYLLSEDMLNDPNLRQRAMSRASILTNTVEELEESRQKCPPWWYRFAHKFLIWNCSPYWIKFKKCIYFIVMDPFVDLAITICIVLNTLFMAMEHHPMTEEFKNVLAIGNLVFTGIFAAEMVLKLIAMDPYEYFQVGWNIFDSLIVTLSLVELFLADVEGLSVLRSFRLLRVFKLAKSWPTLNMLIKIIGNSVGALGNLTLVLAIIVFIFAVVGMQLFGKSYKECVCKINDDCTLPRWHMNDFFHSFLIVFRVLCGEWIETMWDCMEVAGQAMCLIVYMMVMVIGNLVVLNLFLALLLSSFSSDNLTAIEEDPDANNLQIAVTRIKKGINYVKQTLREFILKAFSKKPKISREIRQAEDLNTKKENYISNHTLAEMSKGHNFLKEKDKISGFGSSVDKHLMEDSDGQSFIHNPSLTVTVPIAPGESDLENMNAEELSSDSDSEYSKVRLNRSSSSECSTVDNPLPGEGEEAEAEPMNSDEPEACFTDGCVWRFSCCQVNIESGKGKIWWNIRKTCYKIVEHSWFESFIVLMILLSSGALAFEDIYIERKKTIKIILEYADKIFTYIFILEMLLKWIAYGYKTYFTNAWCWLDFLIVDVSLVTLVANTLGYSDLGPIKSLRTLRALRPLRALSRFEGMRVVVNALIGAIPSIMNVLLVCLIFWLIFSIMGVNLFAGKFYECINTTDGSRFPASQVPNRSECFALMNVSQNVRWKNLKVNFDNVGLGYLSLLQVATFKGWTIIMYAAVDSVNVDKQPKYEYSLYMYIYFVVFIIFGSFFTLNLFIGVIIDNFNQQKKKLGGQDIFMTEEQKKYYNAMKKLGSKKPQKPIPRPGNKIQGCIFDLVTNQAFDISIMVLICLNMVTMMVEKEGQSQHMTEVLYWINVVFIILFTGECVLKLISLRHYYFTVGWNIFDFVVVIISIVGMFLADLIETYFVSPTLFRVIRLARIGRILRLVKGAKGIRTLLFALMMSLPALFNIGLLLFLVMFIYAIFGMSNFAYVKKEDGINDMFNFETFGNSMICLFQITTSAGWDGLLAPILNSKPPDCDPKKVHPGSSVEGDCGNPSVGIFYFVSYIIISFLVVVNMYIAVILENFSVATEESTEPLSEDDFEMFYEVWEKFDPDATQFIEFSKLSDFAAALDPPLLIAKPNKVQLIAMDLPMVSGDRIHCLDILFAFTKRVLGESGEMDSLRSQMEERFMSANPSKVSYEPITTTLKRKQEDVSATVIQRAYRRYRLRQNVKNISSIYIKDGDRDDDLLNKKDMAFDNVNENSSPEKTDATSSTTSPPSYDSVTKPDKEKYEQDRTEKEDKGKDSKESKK
T2 sequence (Q07699 19-218 partner): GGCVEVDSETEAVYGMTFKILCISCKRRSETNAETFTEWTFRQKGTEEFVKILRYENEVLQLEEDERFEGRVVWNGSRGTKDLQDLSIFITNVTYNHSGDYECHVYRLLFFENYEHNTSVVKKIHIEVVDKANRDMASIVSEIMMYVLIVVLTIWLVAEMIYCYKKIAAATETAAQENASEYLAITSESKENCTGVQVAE
The data set is described as follows: Patch voltage clamp electrophysiology assay (EP), NaV1.7. Format: cell-based. Particulars: HEK-293 cells stably expressing NaV1.7 with β1 subunit; whole-cell patch clamp, membrane potential −60 mV (inactivated state). The procedure: as §1, §2, §3, §4
(The patch-clamp technique gives a direct electrical read-out from membranes.)

The next data set addresses T3, hNav1.7 (Homo sapiens, UniProt Q15858).
T3 construct: expressed in transfected cells
Briefly: Tritiated compound binding (LBA) to membranes from cells expressing hNav1.7 and the β1 subunit, competitive binding. Particulars: competitive binding vs 100 pM [3H]compound, 18 h, room temperature, membranes with hNav1.7 and β1 subunit. As for the experimental part: Tritiated Compound Binding to Membranes
Isolated from Cells that Heterologously Express hNav1.7 and the β1 Subunit
Preparation of membranes containing recombinantly expressed sodium channels: Frozen recombinant cell pellets were thawed on ice and diluted to 4 times the cell pellet weight with ice cold 50 mM Tris HCl, pH 7.4 buffer. The cell suspensions were homogenized on ice using a motorized glass dounce homogeniser. […] The supernatants were collected and centrifuged at 10000×g at 4° C. for 50 min. The pellets were then re-suspended in 100 mM NaCl, 20 mM Tris HCl, pH 7.4 buffer containing 1% v/v protease inhibitors (Calbiochem) and re-homogenized on ice. The homogenized membranes were then processed through a syringe equipped with a 26 gauge needle. Protein concentrations were determined by Bradford Assay and the membranes were stored at −80° C.
Saturation experiments. A representative compound of formula (I) having a methyl group was tritiated. Three tritiums were incorporated in place of methyl hydrogens to generate [^3H]compound. Binding of this radioligand was performed in 5 mL borosilicate glass test tubes at room temperature. Binding was initiated by adding membranes to increasing concentrations of [^3H]compound in 100 mM NaCl, 20 mM Tris HCl, pH 7.4 buffer containing 0.01% w/v bovine serum albumin (BSA) for 18 h. Non-specific binding was determined in the presence of 1 μM unlabeled compound. After 18 h, the reactants were filtered through GF/C glass fiber filters presoaked in 0.5% w/v polyethylene imine. […] [^3H]compound bound to filters was quantified by liquid scintillation counting.
Binding reactions were performed in 96-well polypropylene plates at room temperature for 18 h. In 360 μL, membranes were incubated with 100 pM [^3H]compound and increasing concentrations of Test Compound. Non-specific binding was defined in the presence of 1 μM unlabeled compound. Reactions were transferred and filtered through 96-well glass fiber/C filter plates presoaked with 0.5% polyethylene imine. […] Bound radioactivity was determined by liquid scintillation counting.
Data Analysis: For saturation experiments, non-specific binding was subtracted from total binding to provide specific binding and these values were recalculated in terms of pmol ligand bound per mg protein. Saturation curves were constructed and dissociation constants were calculated using the single site ligand binding model: Beq=(Bmax*X)/(X+Kd), where Beq is the amount of ligand bound at equilibrium, Bmax is the maximum receptor density, Kd is the dissociation constant for the ligand, and X is the free ligand concentration. For competition studies percent inhibition was determined and IC50 values were calculated using a 4 parameter logistic model (% inhibition=(A+((B−A)/(1+((x/C)^D)))) using XLfit, where A and B are the maximal and minimum inhibition respectively, C is the IC50 concentration and D is the (Hill) slope.

The mark [1] stands for this setting: human, HEK-293 cells stably expressing human NaV1.5 with β1 subunit, pH 7.4.

Structures can show the parent of a compound that is named as a salt. Where two headings read alike, the source gives them in different places.

T1 sequence (Q14524 whole entry): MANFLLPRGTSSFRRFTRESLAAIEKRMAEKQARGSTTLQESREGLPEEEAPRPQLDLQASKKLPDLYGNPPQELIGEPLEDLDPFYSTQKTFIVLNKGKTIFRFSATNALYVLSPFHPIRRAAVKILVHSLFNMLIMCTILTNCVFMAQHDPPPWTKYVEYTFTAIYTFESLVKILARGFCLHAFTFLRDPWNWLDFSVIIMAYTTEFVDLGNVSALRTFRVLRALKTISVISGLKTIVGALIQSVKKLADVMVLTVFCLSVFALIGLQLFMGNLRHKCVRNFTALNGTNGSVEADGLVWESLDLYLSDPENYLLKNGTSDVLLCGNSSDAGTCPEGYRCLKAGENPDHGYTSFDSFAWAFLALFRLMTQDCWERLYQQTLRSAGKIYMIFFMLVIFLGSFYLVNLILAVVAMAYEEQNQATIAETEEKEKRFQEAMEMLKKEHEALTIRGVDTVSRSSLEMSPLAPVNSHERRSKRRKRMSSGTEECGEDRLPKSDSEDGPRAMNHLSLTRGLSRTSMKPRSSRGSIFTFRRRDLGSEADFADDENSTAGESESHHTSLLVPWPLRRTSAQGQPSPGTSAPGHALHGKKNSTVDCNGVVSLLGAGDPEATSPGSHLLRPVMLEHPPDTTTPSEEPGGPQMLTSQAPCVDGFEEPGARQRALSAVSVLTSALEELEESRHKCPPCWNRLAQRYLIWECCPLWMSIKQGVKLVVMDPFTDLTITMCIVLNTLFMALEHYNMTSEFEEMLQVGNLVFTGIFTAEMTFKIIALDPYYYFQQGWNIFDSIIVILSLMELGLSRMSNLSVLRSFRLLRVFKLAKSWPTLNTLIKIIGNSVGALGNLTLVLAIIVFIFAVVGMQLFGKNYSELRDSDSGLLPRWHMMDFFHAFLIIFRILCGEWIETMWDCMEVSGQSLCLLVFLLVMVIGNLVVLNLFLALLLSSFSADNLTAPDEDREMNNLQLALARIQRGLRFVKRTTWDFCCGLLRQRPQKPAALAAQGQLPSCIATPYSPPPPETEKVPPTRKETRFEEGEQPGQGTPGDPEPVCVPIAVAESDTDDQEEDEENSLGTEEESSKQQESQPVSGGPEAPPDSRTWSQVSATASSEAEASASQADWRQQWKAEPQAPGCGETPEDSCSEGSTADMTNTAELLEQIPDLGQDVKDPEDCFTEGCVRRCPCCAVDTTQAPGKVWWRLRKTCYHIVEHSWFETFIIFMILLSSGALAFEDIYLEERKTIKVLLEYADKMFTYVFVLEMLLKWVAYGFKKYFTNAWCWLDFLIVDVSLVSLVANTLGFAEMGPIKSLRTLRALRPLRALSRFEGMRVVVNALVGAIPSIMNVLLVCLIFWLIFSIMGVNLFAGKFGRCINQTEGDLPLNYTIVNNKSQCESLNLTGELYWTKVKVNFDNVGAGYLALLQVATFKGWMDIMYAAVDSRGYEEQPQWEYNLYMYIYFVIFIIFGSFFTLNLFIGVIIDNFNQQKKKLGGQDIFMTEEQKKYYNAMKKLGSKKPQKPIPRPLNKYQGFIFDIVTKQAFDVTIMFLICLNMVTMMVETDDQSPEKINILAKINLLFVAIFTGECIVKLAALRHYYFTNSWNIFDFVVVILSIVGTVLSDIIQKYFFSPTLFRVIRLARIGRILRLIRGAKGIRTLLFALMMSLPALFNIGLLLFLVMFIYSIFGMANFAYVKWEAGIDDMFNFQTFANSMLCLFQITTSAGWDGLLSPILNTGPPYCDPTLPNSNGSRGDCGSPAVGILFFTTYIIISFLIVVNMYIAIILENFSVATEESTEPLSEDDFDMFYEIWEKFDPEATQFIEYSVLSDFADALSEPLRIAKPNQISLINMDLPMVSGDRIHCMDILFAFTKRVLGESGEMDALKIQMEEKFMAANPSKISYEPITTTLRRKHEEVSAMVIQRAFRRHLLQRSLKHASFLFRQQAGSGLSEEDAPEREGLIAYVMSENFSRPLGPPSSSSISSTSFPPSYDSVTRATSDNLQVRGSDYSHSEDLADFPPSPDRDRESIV
T3 sequence (Q15858 1-1977 isoform Q15858-3): as the sequence (Q15858 1-1977 isoform Q15858-3) above
T3 sequence (Q07699 19-218 partner): as the sequence (Q07699 19-218 partner) above

As to `O=C(O)[C@@H]1[C@@H]2C[C@@H]2CN1C(=O)c1cc(C2CC2)c(OCC23CC4CC(CC(C4)C2)C3)cc1F` (racemic) [Example 61, racemate-(1R, 3S, 5R)-2-(4-((adamantan-1-yl)methoxy)-5-cyclopropyl-2-fluorobenzoyl)-2-azabicyclo[3.1.0]hexane-3-carboxylic acid], the IC50 at NaV1.5 (read-out: Nav1.5) was found to be 12 µM; against human NaV1.7 it was 2.7 µM; on hNav1.7 it was 0.97 µM.

For the compound `C[C@H](c1cc(Cl)cc(Cl)c1)N1CCC[C@H](COc2cc(F)c(C(=O)N3CCC[C@H]3C(=O)O)cc2C2CC2)C1` (single isomer, unassigned) [Example 73a], the IC50 at NaV1.5 (read-out: Nav1.5) was 12 µM; at human NaV1.7, 2.2 µM; on hNav1.7, 0.36 µM.

Consider `C[C@@H](c1cc(Cl)cc(Cl)c1)N1CCC[C@H](COc2cc(F)c(C(=O)N3CCC[C@H]3C(=O)O)cc2C2CC2)C1` (single isomer, unassigned) [Example 73b], for which the figures for the IC50 at NaV1.5 (read-out: Nav1.5), on human NaV1.7 and on hNav1.7 were 22 µM, 1.5 µM and 0.093 µM, respectively.

As for `C[C@@H](c1cc(Cl)cc(Cl)c1)N1CCC(COc2cc(F)c(C(=O)N3CCC[C@H]3C(=O)O)cc2C2CC2)CC1` (single isomer, unassigned) [Example 79a], the IC50 at NaV1.5 (setting [1]) was not below 30 µM; against human NaV1.7 it was 0.69 µM; on hNav1.7, 0.047 µM.

In the case of `CC(c1cc(Cl)cc(Cl)c1)N1CCC(COc2cc(F)c(C(=O)N3CCC[C@H]3C(=O)O)cc2C2CC2)CC1` (single isomer, unassigned) [Example 79b], the figures for the IC50 at NaV1.5 (setting [1]), at human NaV1.7 and on hNav1.7 were not below 30 µM, 0.79 µM and 0.073 µM, respectively.

Regarding `O=C(O)[C@@H]1CCCN1C(=O)c1cc(C2CC2)c(OC2C3CC4CC2CC(Cl)(C4)C3)cc1F` (single isomer, unassigned) [Example 80], the IC50 at NaV1.5 (setting [1]) is not below 30 µM; on human NaV1.7 it was 1.5 µM; on hNav1.7 it was 0.59 µM.

Turning to `O=C(O)[C@@H]1CCCN1C(=O)c1cc(Cl)c(OC2C3CC4CC2CC(Cl)(C4)C3)cc1F` (single isomer, unassigned) [Example 81], the IC50 at NaV1.5 (setting [1]) is not below 30 µM; against human NaV1.7, 16 µM; on hNav1.7, 8.9 µM.

As for `CC1(COc2cc(F)c(C(=O)N[C@H](C(=O)O)C3CC3)cc2C2CC2)CN([C@H](c2ccccc2)c2cc(Cl)cc(Cl)c2)C1` (single isomer, unassigned) [Example 113], the IC50 at NaV1.5 (read-out: Nav1.5) was 15 µM; at human NaV1.7, 0.61 µM; on hNav1.7, 0.0076 µM.

Take `CC1(COc2cc(F)c(C(=O)N[C@H](C(=O)O)C3CC3)cc2C2CC2)CN([C@@H](c2ccccc2)c2cc(Cl)cc(Cl)c2)C1` (single isomer, unassigned) [Example 114]: the IC50 on NaV1.5 (read-out: Nav1.5) is 13 µM; on human NaV1.7, 1.7 µM; on hNav1.7, 0.02 µM.

As to `C[C@H]1CCN(C(=O)c2cc(C3CC3)c(OCC3(C)CN([C@H](c4ccccc4)c4cc(Cl)cc(Cl)c4)C3)cc2F)[C@@H]1C(=O)O` (single isomer, unassigned) [Example 115], the IC50 on NaV1.5 (read-out: Nav1.5) turned out to be 11 µM; at human NaV1.7, 0.3 µM; on hNav1.7 it was 0.0077 µM.

On to `O=C(O)[C@H]1C[C@@H](O)CN1C(=O)c1cc(C2CC2)c(OCC23CC4CC(CC(C4)C2)C3)cc1F` [Example 47, (2R,4R)-1-[4-(1-adamantylmethoxy)-5-cyclopropyl-2-fluoro-benzoyl]-4-hydroxy-pyrrolidine-2-carboxylic acid], for which the IC50 is 16 µM at human NaV1.7 and not below 10 µM on hNav1.7.

Turning to `O=C(O)[C@@H]1CC(F)(F)CN1C(=O)c1cc(C2CC2)c(OCC23CC4CC(CC(C4)C2)C3)cc1F` [Example 48, (2S)-1-[4-(1-adamantylmethoxy)-5-cyclopropyl-2-fluoro-benzoyl]-4,4-difluoro-pyrrolidine-2-carboxylic acid], the IC50 at human NaV1.7 was determined as 0.64 µM; on hNav1.7, 0.04 µM.

In the case of `O=C(O)[C@@H]1C[C@@H](F)CN1C(=O)c1cc(C2CC2)c(OCC23CC4CC(CC(C4)C2)C3)cc1F` [Example 49, (2S,4R)-1-[4-(1-adamantylmethoxy)-5-cyclopropyl-2-fluoro-benzoyl]-4-fluoro-pyrrolidine-2-carboxylic acid], the results for the IC50 at human NaV1.7 and at hNav1.7 were 0.23 µM and 0.01 µM, respectively.

Take `O=C(O)[C@@H]1CCCN1C(=O)c1cc(C2CC2)c(O[C@H]2CCCN(Cc3ccc(F)cc3Cl)C2)cc1F` [Example 95, (S)-1-(4-(((S)-1-(2-chloro-4-fluorobenzyl)piperidin-3-yl)oxy)-5-cyclopropyl-2-fluorobenzoyl)pyrrolidine-2-carboxylic acid]: the IC50 is not below 30 µM on NaV1.5 (setting [1]) and not below 10 µM at hNav1.7.

Turning to `C[C@@H](c1cc(Cl)cc(Cl)c1)N1CCC(COc2cc(F)c(C(=O)N3C[C@H](F)C[C@H]3C(=O)O)cc2C2CC2)CC1` [Example 100], the IC50 at NaV1.5 (read-out: Nav1.5) was found to be 18 µM.

With `C[C@@H]1CC[C@@H](C(=O)O)N1C(=O)c1cc(C2CC2)c(OCC23CC4CC(CC(C4)C2)C3)cc1F` [Example 152, (2S,5R)-1-[4-(1-adamantylmethoxy)-5-cyclopropyl-2-fluoro-benzoyl]-5-methyl-pyrrolidine-2-carboxylic acid], at NaV1.5 (read-out: Nav1.5), the IC50 amounted to 13 µM.

As to `C[C@H]1CC[C@@H](C(=O)O)N1C(=O)c1cc(C2CC2)c(OCC23CC4CC(CC(C4)C2)C3)cc1F` [Example 153, (2S,5S)-1-[4-(1-adamantylmethoxy)-5-cyclopropyl-2-fluoro-benzoyl]-5-methyl-pyrrolidine-2-carboxylic acid], the IC50 at NaV1.5 (read-out: Nav1.5) came out at 19 µM.

`C[C@@H](c1cc(Cl)cc(Cl)c1)N1CCC(COc2cc(F)c(C(=O)N3C[C@H](F)C[C@H]3C(=O)O)cc2C2CC2)CC1` [Example 158, (2S,4R)-1-[5-cyclopropyl-4-[[1-[(1S)-1-(3,5-dichlorophenyl)ethyl]-4-piperidyl]methoxy]-2-fluoro-benzoyl]-4-fluoro-pyrrolidine-2-carboxylic acid] came in with an IC50 against NaV1.5 (setting [1]) not below 30 µM.

For `Nc1noc2ccc(-c3cc(Cl)ccc3Oc3cc(F)c(C(=O)N4CCC[C@H]4C(=O)O)cc3F)cc12` [Example 192, (S)-1-(4-(2-(3-aminobenzo[d]isoxazol-5-yl)-4-chlorophenoxy)-2,5-difluorobenzoyl)pyrrolidine-2-carboxylic acid trifluoroacetate], the IC50 against NaV1.5 (setting [1]) is not below 30 µM; on hNav1.7, not below 10 µM.
